{"source": "paper PMC6768323", "about": "“Adverse Maternal, Fetal, and Postnatal Effects of Hexafluoropropylene Oxide Dimer Acid (GenX) from Oral Gestational Exposure in Sprague-Dawley Rats” (Environmental Health Perspectives, 2019)", "key": {"fetal testis": {"tested_on": "fetal testis", "test": "Ex vivo fetal testis testosterone production", "type": "in vivo, Sprague-Dawley rats", "conditions": "any dose", "description": "For the first two blocks, spanning the full dose range, late gestation (GD18) dams were euthanized by decapitation at ∼2h after the final oral dose [ ∼0830–1000 hours Eastern Standard Time (EST)]. Trunk blood was collected and serum isolated via centrifugation ( 10,000×g for 15 min at 4°C) in vacutainer tubes, transferred to 1.5-mL microcentrifuge tubes and stored at −80°C . Dam liver weight was recorded and a sample of liver tissue was collected into a polypropylene microcentrifuge tube containing 500μL TRIzol Reagent (Invitrogen) on ice. Fetuses were removed and two randomly selected fetuses per litter were weighed. […] Ex vivo fetal testis testosterone production was measured as previously reported ([Wilson et al. 2004b]) except the radioimmunoassay (RIA) utilized here was supplied by ALPCO (Catalog No. 72-TESTO-CT2, ALPCO). […]\nFetal testis testosterone production was normalized to the mean control concentration within a given block and analyzed as percentage of control values across blocks. Maternal liver weight was analyzed using body weight as a covariate within PROC GLM followed by pairwise comparison using LSMEANS, this analysis produces linear regressions of body weight versus liver weight for each dose group. […]"}, "[1]": {"tested_on": "pregnant Sprague-Dawley rats", "test": "Maternal serum thyroid hormones and lipid panel", "type": "in vivo", "description": "Maternal serum samples from the first two blocks were analyzed for thyroid hormones and a standard lipid panel. Total triiodothyronine ( T3 ) and thyroxine ( T4 ) were quantified by radioimmunoassay (RIA) according to manufacturer specifications (IVD Technologies). […] Thyroid hormone RIA values were considered below detection when specific binding ( B/B0 ) was ≥90% ( 0.2 ng/mL for T3 and 2 ng/mL for T4 ) ([Sui and Gilbert 2003]). Serum total cholesterol, high-density lipoproteins (HDL), low-density lipoproteins (LDL), and triglycerides were quantified using a Beckman Coulter AU480 clinical chemistry analyzer (Beckman Coulter, Inc.) as per manufacturer’s protocol. All reagents were obtained from the instrument manufacturer except for the LDL assay, which was obtained from Diazyme Laboratories."}, "estrogen (ER) receptor": {"tested_on": "estrogen (ER) receptor", "test": "ER transcriptional activation, T47D-KBluc cells", "type": "cell-based", "conditions": "100 pM to 10 μM", "description": "HFPO-DA was assessed for agonism and antagonism of transcriptional activation for estrogen (ER), androgen (AR), and glucocorticoid receptors (GR). Method details for in vitro transactivation assays for ER ([Wilson et al. 2004a]), AR ([Hartig et al. 2002], [2007]), and GR ([Conley et al. 2017]; [Medlock Kakaley et al. 2018]) have been previously reported. Briefly, for ER activity we utilized the stably transfected T47D-KBluc cell line [publicly available via American Type Culture Collection (ATCC); CRL-2865] according to protocols provided by ATCC with the modification of Dulbecco’s Modified Eagle Media (DMEM) as the cell culture media instead of Roswell Park Memorial Institute (RPMI) media. […] All assays were run in 96-well plates and luminescence was detected using a BMG Fluostar Omega luminometer (BMG Labtech) following 24-h exposure. […] Cellular cytotoxicity across the dosing range was determined for CV-1 cells utilizing the 3-(4,5-dimethylthiazol-2-yl)-2,5-diphenyltetrazolium bromide (MTT) dye ([Mosmann 1983]). HFPO-DA was analyzed using n=2–3 biological replicate assay plates (i.e., unique cell passages) with four technical replicates per treatment per plate. […]"}}, "note": "Values joined by “and” are separate entries in the source; they are usually repeats but may differ in a detail not shown here. Identical values can stand only once."}
{"molecule": "O=C(O)C(F)(OC(F)(F)C(F)(F)C(F)(F)F)C(F)(F)F", "note": "(stereo not drawn) [HFPO-DA, Hexafluoropropylene oxide dimer acid]", "values": [{"measurement": "fetal testis testosterone production versus controls", "setting": "fetal testis", "result": "not significantly different from controls at any dose"}, {"measurement": "serum total T3 in the top two dose levels", "setting": "[1]; 250 and 500 mg/kg/d", "result": "< 0.2", "unit": "ng/mL"}, {"measurement": "Dam serum HDL", "setting": "[1]; GD18, 1-500 mg/kg/d", "result": "36.3 ± 3.7 mg/dL and 36.0 ± 2.5 mg/dL and 33.0 ± 3.6 mg/dL and 37.0 ± 1.2 mg/dL and 36.7 ± 4.7 mg/dL and 28.7 ± 3.2 mg/dL and 19.3 ± 2.7 mg/dL"}, {"measurement": "Dam serum LDL", "setting": "[1]; GD18, 1-500 mg/kg/d", "result": "14.7 ± 0.9 mg/dL and 14.0 ± 1.2 mg/dL and 12.7 ± 0.9 mg/dL and 12.3 ± 1.9 mg/dL and 13.3 ± 1.9 mg/dL and 19.0 ± 3.2 mg/dL and 14.7 ± 0.3 mg/dL and 14.0 ± 0.6 mg/dL"}, {"measurement": "dose with lower maternal serum thyroid hormone and lipid profiles", "setting": "[1]; oral GD14-18", "result": "≥ 30", "unit": "mg/kg"}, {"measurement": "dose with significantly lower serum total T3", "setting": "[1]; rat, in vivo", "result": "≥ 30", "unit": "mg/kg"}, {"measurement": "dose with significantly lower serum triglycerides", "setting": "[1]; rat, in vivo", "result": 500, "unit": "mg/kg"}, {"measurement": "dose with significantly lower total T4 and LDL", "setting": "[1]; rat, in vivo", "result": "≥ 125", "unit": "mg/kg"}, {"measurement": "estrogenic activity (agonism or antagonism)", "setting": "estrogen (ER) receptor", "result": "did not display any estrogenic activity"}]}
